The target of one experiment is T1, human CB-2 receptor (Homo sapiens, UniProt P34972).
T1 construct: expressed in transfected cells; host or cells: SK-N-MC cells, pcDNA3 CB-2 (human), semi-purified membranes
In words: Binding assay, cannabinoid CB2 receptor ([3H]-CP-55,940 displacement). To be noted: for inhibition at 1 µM: test concentration 1 μM (superscript b); for inhibition at 1 µM / inhibition at 0.2 µM: read-out: CB2 binding percent inhibition. The method, boiled down:
(§1)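 Displacement of 0.2 nM [3H]-CP-55,940 (non-specific: 10 uM WIN 55,212) was run on semi-purified membranes of transfected SK-N-MC cells carrying human CB-1 or CB-2, 90 min, 30° C, pH 7.5. Scintillation counting; IC50 by linear regression, else % inhibition at 0.2, 1 or 10 μM.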

Experiment [1] has as its target T2, human CB1 receptor (Homo sapiens, UniProt P21554). In words: Binding assay, cannabinoid CB1 receptor ([3H]-CP-55,940 displacement). On the set-up: expressed in transfected cells; host or cells: SK-N-MC cells, pcDNA3 CB-1 (human), semi-purified membranes. To be noted: for inhibition at 1 µM: test concentration 1 μM (superscript b). Summed up:
as §1

Experiment [2] has as its target T2, human CB1 receptor. In words: Functional cell-based assay, CB1 receptor mediated change in CRE β-gal expression (adenylate cyclase activity). On the set-up: expressed in transfected cells; host or cells: SK-NC cells [sic], pcDNA3-CRE β-gal and pcDNA3 CB-1 (human). The following applies: for inhibition at 1 µM: test concentration 1 μM, where an EC50 was not obtained, read-out: CB1 functional percent inhibition. The source says:
Functional Cell-Based Assay for CB1 or CB2 Agonist and Inverse Agonist Effects on Intra-Cellular Adenylate Cyclase Activity
The CB1 and CB2 receptors are G-protein coupled receptors (GPCR), which influence cell function via the Gi-protein. These receptors modulate the activity of intracellular adenylate cyclase, which in turn produces the intracellular signal messenger cyclic-AMP (cAMP).
At baseline, or during non-ligand bound conditions, these receptors are constitutively active and tonically suppress adenylate cyclase activity. The binding of an agonist causes further receptor activation and produces additional suppression of adenylate cyclase activity. The binding of an inverse agonist inhibits the constitutive activity of the receptors and results in an increase in adenylate cyclase activity.
By monitoring intracellular adenylate cyclase activity, the ability of compounds to act as agonists or inverse agonists can be determined.
Test compounds were evaluated in SK-NC cells which, using standard transfection procedures, were stably transfected with human cDNA for pcDNA3-CRE β-gal and pcDNA3 CB-1 (human) or pcDNA3 CB-2 (human). By expressing CRE β-gal, the cells produced β-galactosidase in response to CRE promoter activation by cAMP. Cells expressing CRE β-gal and either the human CB1 or CB2 receptor will produce less β-galactosidase when treated with a CB1/CB2 agonist and will produce more β-galactosidase when treated with a CB1/CB2 inverse agonist.
The cells were grown in 96-well plates under standard cell culture conditions at 37° C. in a 5% CO2 atmosphere. After 3 days, the media was removed and a test compound in media (wherein the media was supplemented with 2 mM L-glutamine, […] sodium pyruvate, 0.1% low fatty acid FBS (fetal bovine serum) and antibiotics) was added to the cell. The plates were incubated for 30 minutes at 37° C. and the plate cells were then treated with forskolin over a 4-6 hour period, then washed and lysed. The β-galactosidase activity was quantitated using commercially available kit reagents (Promega Corp. Madison, Wis.) and a Vmax Plate Reader (Molecular Devices, Inc).
For cells expressing CRE β-gal and the CB1 receptor, CB1 agonists reduced β-galactosidase activity in a dose-dependent manner and CB1 inverse agonists increased β-galactosidase activity in a dose-dependent manner.
The change in β-galactosidase activity was determined by setting a vehicle treated cell's activity value at 100% and expressing the β-galactosidase activity measured in a corresponding compound treated cell as a percent of the vehicle treated cell activity.
The EC50 and IC50 values for compounds tested were calculated by linear regression and were obtained from studies in which varying compound concentrations were used.
The EC50 values for compounds tested were calculated by linear regression and were obtained from studies in which varying compound concentrations were used. Where an EC50 was not obtained, test results are provided as percent inhibition at a test concentration of 1 μM. ^aTest value in IC50; indicates agonist activity.

Where [3] appears, read: read-out: CB1 binding percent inhibition.

Structures are written as SMILES. Several values for one entry are separate records, joined by “and”; a condition that tells them apart may be missing. Identical values can stand only once. Like-named read-outs stand apart in the source and are kept apart here.

T2 sequence (P21554 whole entry): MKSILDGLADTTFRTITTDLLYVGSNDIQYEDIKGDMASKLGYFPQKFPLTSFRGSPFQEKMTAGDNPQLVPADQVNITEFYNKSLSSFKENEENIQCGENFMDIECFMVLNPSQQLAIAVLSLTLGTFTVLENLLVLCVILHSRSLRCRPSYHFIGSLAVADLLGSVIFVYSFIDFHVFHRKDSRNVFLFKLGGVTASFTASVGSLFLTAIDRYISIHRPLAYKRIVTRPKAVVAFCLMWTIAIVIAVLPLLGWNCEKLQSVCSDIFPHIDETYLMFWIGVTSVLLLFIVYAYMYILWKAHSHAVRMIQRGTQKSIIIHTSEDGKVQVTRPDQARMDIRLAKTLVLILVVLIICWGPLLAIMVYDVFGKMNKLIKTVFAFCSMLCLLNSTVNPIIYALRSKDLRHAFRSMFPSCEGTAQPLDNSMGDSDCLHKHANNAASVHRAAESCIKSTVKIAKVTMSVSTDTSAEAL
T1 sequence (P34972 whole entry): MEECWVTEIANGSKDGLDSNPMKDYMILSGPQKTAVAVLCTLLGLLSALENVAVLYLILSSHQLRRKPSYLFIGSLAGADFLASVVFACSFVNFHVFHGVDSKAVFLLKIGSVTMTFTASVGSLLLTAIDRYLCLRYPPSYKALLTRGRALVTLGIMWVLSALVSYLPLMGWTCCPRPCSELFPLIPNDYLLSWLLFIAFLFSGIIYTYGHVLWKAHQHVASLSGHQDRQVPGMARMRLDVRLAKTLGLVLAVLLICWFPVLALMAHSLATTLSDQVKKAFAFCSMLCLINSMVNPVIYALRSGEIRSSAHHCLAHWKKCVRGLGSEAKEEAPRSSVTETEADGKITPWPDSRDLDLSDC

As a reminder, the IC50 is the midpoint of a concentration-inhibition curve. A lower IC50 goes with greater potency. Regarding `C[C@@H](NC(=O)c1nn(Cc2ccccc2)c2c1CSCC2)c1ccccc1` [Cpd 1, 1-benzyl-1,4,6,7-tetrahydro-thiopyrano[4,3-c]pyrazole-3-carboxylic acid [(1R)-1-phenyl-ethyl]-amide], the values for the IC50 on human CB-2 receptor, on human CB1 receptor [1] and against human CB1 receptor [2] were 62 nM, 160 nM and 70 nM, respectively.
The term inhibition denotes the percentage by which the read-out fell short of the control. On to `C[C@H](NS(=O)(=O)/C=C/c1nn(Cc2ccccc2)c2c1CSCC2)c1ccccc1` [Cpd 3, (E)-2-(1-benzyl-1,4,6,7-tetrahydro-thiopyrano[4-3-c]pyrazol-3-yl)-ethenesulfonic acid [(1S)-1-phenyl-ethyl]-amide], for which the figures for the inhibition at 1 µM on human CB-2 receptor, at human CB1 receptor [1] (setting [3]) and on human CB1 receptor [2] were 74%, 23% and 17%, respectively.
Broadly, the EC50 is the concentration at which the effect is half-maximal. Low values mean a more potent agent, high ones a less potent agent. With `C[C@@H](NC(=O)c1nn(Cc2ccccc2)c2c1CS(=O)(=O)CC2)c1ccccc1` [Cpd 13, 1-benzyl-5,5-dioxo-4,5,6,7-tetrahydro-1H-5λ^6-thiopyrano[4,3-c]pyrazole-3-carboxylic acid [(1R)-1-phenyl-ethyl]-amide], the inhibition at 1 µM on human CB-2 receptor amounted to 55%; at human CB1 receptor [1] (setting [3]), 38%. The molecule further registered an EC50 at human CB1 receptor [2] of 7880 nM.
Take `CC12CCC(C1)C(C)(C)C2NC(=O)c1nn(Cc2ccccc2)c2c1CSCC2` (stereo not shown) [Cpd 19, 1-benzyl-1,4,6,7-tetrahydro-thiopyrano[4,3-c]pyrazole-3-carboxylic acid (1,3,3-trimethyl-bicyclo[2.2.1]hept-2-yl)-amide]: the IC50 at human CB-2 receptor worked out at 0.7 nM; at human CB1 receptor [1], 5 nM; against human CB1 receptor [2] it was 30 nM.
The corresponding values for `CC12CCC(C1)C(C)(C)C2NC(=O)c1nn(Cc2ccccc2)c2c1CS(=O)(=O)CC2` (stereo not shown) [Cpd 20, 1-benzyl-5,5-dioxo-4,5,6,7-tetrahydro-1H-5λ^6-thiopyrano[4,3-c]pyrazole-3-carboxylic acid (1,3,3-trimethyl-bicyclo[2.2.1]hept-2-yl)-amide] are 5 nM, 22 nM and 60 nM.
In the case of `CC12CCC(C1)C(C)(C)C2NC(=O)c1nn(Cc2ccccc2)c2c1C[S+]([O-])CC2` (stereo not shown) [Cpd 21, 1-benzyl-5-oxo-4,5,6,7-tetrahydro-1H-5λ^4-thiopyrano[4,3-c]pyrazole-3-carboxylic acid (1,3,3-trimethyl-bicyclo[2.2.1]hept-2-yl)-amide], the results for the IC50 on human CB-2 receptor and against human CB1 receptor [2] were 56 nM and 6300 nM, respectively. Also, the inhibition at 1 µM on human CB1 receptor [1] (setting [3]) is 53%.
On to `CC(NS(=O)(=O)/C=C/c1nn(Cc2ccccc2)c2c1C[S+]([O-])CC2)C1CCCCC1` (stereo not shown) [Cpd 25, (E)-2-(1-benzyl-5-oxo-4,5,6,7-tetrahydro-1H-5λ^4-thiopyrano[4,3-c]pyrazol-3-yl)-ethenesulfonic acid (1-cyclohexyl-ethyl)amide], for which the “CB1 binding percent inhibition” value at human CB1 receptor [1] (test concentration 10 μM (superscript c), 10 µM) is 0% and 6%. Further, the inhibition at 1 µM at human CB1 receptor [2] turned out to be 1%.
Consider `C[C@@H](NC(=O)/C=C/c1nn(Cc2ccccc2)c2c1CSCC2)c1ccccc1` [Cpd 33, (2E)-3-(1-benzyl-1,4,6,7-tetrahydro-thiopyrano[4,3-c]pyrazol-3-yl)-N-[(1R)-1-phenyl-ethyl]-acrylamide], for which the IC50 on human CB-2 receptor worked out at 6800 nM. The results for the inhibition at 1 µM on human CB1 receptor [1] (setting [3]) and on human CB1 receptor [2] were 35% and 24%, respectively. The inhibition at 10 µM at human CB1 receptor [1] (test concentration 10 μM (superscript c), read-out: CB1 binding percent inhibition) was found to be 9%.
On to `C[C@@H](NC(=O)c1nn(-c2ccc(Cl)cc2Cl)c2c1CSC/C2=C\c1ccc(Br)cc1)c1ccccc1` [Cpd 129, (7Z)-(4-Bromo-benzylidene)-1-(2,4-dichloro-phenyl)-1,4,6,7-tetrahydro-thiopyrano[4,3-c]pyrazole-3-carboxylic acid [(1R)-1-phenyl-ethyl]-amide], for which the inhibition at 0.2 µM on human CB-2 receptor came to 26%. The molecule further displayed an IC50 at human CB1 receptor [1] of 6 nM.
On to `O=C(NN1CCCCC1)c1nn(-c2ccc(Cl)cc2Cl)c2c1CSC/C2=C\c1ccc(Br)cc1` [Cpd 130, (7Z)-(4-Bromo-benzylidene)-1-(2,4-dichloro-phenyl)-1,4,6,7-tetrahydro-thiopyrano[4,3-c]pyrazole-3-carboxylic acid piperidin-1-ylamide], for which the inhibition at 0.2 µM on human CB-2 receptor (test concentration 0.2 μM (superscript a)) is 34%. This molecule returned an IC50 on human CB1 receptor [1] of 21 nM.

The values are drawn from patent US7524964B2, “Tetrahydrothiopyrano pyrazole cannabinoid modulators” (Janssen Pharmaceutica NV, priority 2005, dated 2009).
